Reference: PubChem BioAssay AID330 (DTP/NCI, 2004)
Where “and” joins values, the source holds several entries; their conditions need not be identical. Equal values may be shown once. Toxic doses and inconclusive results are not listed. How the source made its calls: active means survival T/C of 150% or more; inactive means T/C below 125% in these data.

Tested on: P388 leukemia ip, CD2F1 mice, survival T/C
Test: NCI In Vivo Anticancer Drug Screen. Data for tumor model P388 Leukemia (intraperitoneal) in CD2F1 (CDF1) mice
Settings: endpoint: median survival time, higher = longer survival
Summary of the method: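 Mice carrying the transplanted tumor received test compound or vehicle. Survival was recorded in each group, and the value is the treated-group measurement divided by that of the vehicle-treated control group.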

[1] = dose: 50.0 mg/kg/injection, schedule: Q01DX005 (ip), vehicle: saline with Tween-80
[2] = dose: 50.0 mg/kg/injection, schedule: Q01DX009 (ip), vehicle: saline with Tween-80
[3] = dose: 100.0 mg/kg/injection, schedule: Q01DX009 (ip), vehicle: saline with Tween-80
[4] = dose: 50.0 mg/kg/injection, schedule: Q01DX009 (ip), vehicle: saline
[5] = dose: 100.0 mg/kg/injection, schedule: Q01DX009 (ip), vehicle: saline
[6] = dose: 200.0 mg/kg/injection, schedule: Q01DX009 (ip), vehicle: saline
[7] = dose: 60.0 mg/kg/injection, schedule: Q01DX005 (ip), vehicle: saline
[8] = dose: 120.0 mg/kg/injection, schedule: Q01DX005 (ip), vehicle: saline
[9] = dose: 240.0 mg/kg/injection, schedule: Q01DX005 (ip), vehicle: saline
[10] = dose: 60.0 mg/kg/injection, schedule: Q01DX005 (ip), vehicle: saline with Tween-80
[11] = dose: 120.0 mg/kg/injection, schedule: Q01DX005 (ip), vehicle: saline with Tween-80
[12] = dose: 240.0 mg/kg/injection, schedule: Q01DX005 (ip), vehicle: saline with Tween-80
[13] = dose: 50.0 mg/kg/injection, schedule: Q01DX005 (ip), vehicle: Klucel (hydroxypropylcellulose) (HPC)
[14] = dose: 100.0 mg/kg/injection, schedule: Q01DX005 (ip), vehicle: Klucel (hydroxypropylcellulose) (HPC)
[15] = dose: 100.0 mg/kg/injection, schedule: Q01DX005 (ip), vehicle: saline with Tween-80
[16] = dose: 200.0 mg/kg/injection, schedule: Q01DX005 (ip), vehicle: saline with Tween-80

Measured: T/C

COC1/C=C/OC2(C)Oc3c(C)c(O)c4c(O)c(c(CNCc5ccccc5)c(O)c4c3C2=O)NC(=O)/C(C)=C\C=C\C(C)C(O)C(C)C(O)C(C)C(OC(C)=O)C1C (centres undefined)
inactive: dose: 25.0 mg/kg/injection, schedule: Q01DX009 (ip), vehicle: other 92 % of control | dose: 50.0 mg/kg/injection, schedule: Q01DX009 (ip), vehicle: other 91 % of control | dose: 100.0 mg/kg/injection, schedule: Q01DX009 (ip), vehicle: other 88 % of control | dose: 400.0 mg/kg/injection, schedule: Q01DX009 (ip), vehicle: other 89 % of control

CC1C2CC3OC(=O)C1C3C2 (centres undefined)
inactive: dose: 12.5 mg/kg/injection, schedule: Q01DX005 (ip), vehicle: saline with Tween-80 102 % of control | dose: 25.0 mg/kg/injection, schedule: Q01DX005 (ip), vehicle: saline with Tween-80 102 % of control | [1] 99 % of control and 106 % of control

O=C(O)CCN1C(=O)c2ccccc2C1=O
inactive: dose: 100.0 mg/kg/injection, schedule: Q04DX003 (ip), vehicle: saline with Tween-80 100 % of control | dose: 200.0 mg/kg/injection, schedule: Q04DX003 (ip), vehicle: saline with Tween-80 100 % of control | dose: 400.0 mg/kg/injection, schedule: Q04DX003 (ip), vehicle: saline with Tween-80 95 % of control

CC(=O)CC(=O)CCCC(=O)O
inactive: [2] 96 % of control | [3] 99 % of control | dose: 200.0 mg/kg/injection, schedule: Q01DX009 (ip), vehicle: saline with Tween-80 104 % of control

Cn1c(=O)c2c(ncn2CCSc2ncnc3nc[nH]c23)n(C)c1=O
inactive: [4] 97 % of control | [5] 105 % of control | [6] 114 % of control

COc1ccc(C(=O)Cc2nc3nnc(N)n3[nH]c2=O)cc1
inactive: [7] 99 % of control | [8] 104 % of control | [9] 103 % of control

CCOC(=O)N(C)C
inactive: dose: 25.0 mg/kg/injection, schedule: Q01DX009 (ip), vehicle: saline 89 % of control | [4] 91 % of control | [5] 99 % of control | [6] 105 % of control

CCCCCCCC/C=C\CCCCCCCC(=O)OCC(COC(=O)CCCCCCC/C=C\CCCCCCCC)OC(=O)N(CCCl)CCCl
inactive: dose: 30.0 mg/kg/injection, schedule: Q01DX005 (ip), vehicle: saline with Tween-80 118 % of control | [10] 115 % of control
active: [11] 174 % of control | [12] 205 % of control and 259 % of control

COc1ccccc1C1C2CCCC(C2O)C(c2ccccc2OC)N1C (centres undefined)
inactive: dose: 100.0 mg/kg/injection, schedule: Q04DX003 (ip), vehicle: saline 99 % of control and 92 % of control | dose: 100.0 mg/kg/injection, schedule: Q04DX003 (ip), vehicle: suspension in saline 100 % of control | dose: 200.0 mg/kg/injection, schedule: Q04DX003 (ip), vehicle: saline 98 % of control and 102 % of control | dose: 200.0 mg/kg/injection, schedule: Q04DX003 (ip), vehicle: suspension in saline 107 % of control | dose: 400.0 mg/kg/injection, schedule: Q04DX003 (ip), vehicle: saline 98 % of control and 94 % of control | dose: 400.0 mg/kg/injection, schedule: Q04DX003 (ip), vehicle: suspension in saline 99 % of control

CCN(CC)c1cc(Cl)ccc1Cl
inactive: dose: 25.0 mg/kg/injection, schedule: Q01DX009 (ip), vehicle: saline with Tween-80 104 % of control | [2] 104 % of control | [3] 100 % of control

CCCCCCC[CH2][Sn]([CH2]CCCCCCC)([CH2]CCCCCCC)[O]C(C)=O
inactive: [4] 97 % of control | [5] 100 % of control | [6] 94 % of control

COc1ccc(-c2cc(=O)cc(C(N)=O)o2)cc1
inactive: [10] 101 % of control | [11] 97 % of control | [12] 96 % of control

O=CC(O)C(O)C(O)C(O)CO (centres undefined)
inactive: dose: 12.5 mg/kg/injection, schedule: Q04DX003 (ip), vehicle: saline 108 % of control | dose: 25.0 mg/kg/injection, schedule: Q04DX003 (ip), vehicle: saline 100 % of control | dose: 50.0 mg/kg/injection, schedule: Q04DX003 (ip), vehicle: saline 108 % of control | [7] 103 % of control | [8] 105 % of control | [9] 102 % of control | dose: 1.0 % in 0.5 ml injection vol, schedule: Q01DX009 (ip), vehicle: water 100 % of control | dose: 2.0 % in 0.5 ml injection vol, schedule: Q01DX009 (ip), vehicle: water 103 % of control | dose: 4.0 % in 0.5 ml injection vol, schedule: Q01DX009 (ip), vehicle: water 101 % of control | dose: 8.0 % in 0.5 ml injection vol, schedule: Q01DX009 (ip), vehicle: water 100 % of control and 105 % of control | dose: 16.0 % in 0.5 ml injection vol, schedule: Q01DX009 (ip), vehicle: water 103 % of control and 112 % of control | dose: 32.0 % in 0.5 ml injection vol, schedule: Q01DX009 (ip), vehicle: water 98 % of control and 99 % of control

CC1(C)Oc2cc3oc(=O)ccc3c3c2C2C1CCC(C)(O3)C2O (centres undefined)
inactive: [13] 102 % of control | [14] 96 % of control | dose: 200.0 mg/kg/injection, schedule: Q01DX005 (ip), vehicle: Klucel (hydroxypropylcellulose) (HPC) 105 % of control

Cc1cccc(NC(=O)N(C(C)C)C(C)C)c1
inactive: dose: 60.0 mg/kg/injection, schedule: Q01DX005 (ip), vehicle: Klucel + Tween-80 100 % of control | dose: 120.0 mg/kg/injection, schedule: Q01DX005 (ip), vehicle: Klucel + Tween-80 97 % of control | dose: 240.0 mg/kg/injection, schedule: Q01DX005 (ip), vehicle: Klucel + Tween-80 89 % of control

CC1CN(Cc2ccccc2)CC(C)N1Cc1ccccc1 (centres undefined)
inactive: [1] 103 % of control | [15] 105 % of control | [16] 103 % of control

OC1c2ccccc2C(O)c2c1ccc1c2CN(Cc2ccccc2)CC1 (centres undefined)
inactive: dose: 60.0 mg/kg/injection, schedule: Q01DX005 (ip), vehicle: Klucel (hydroxypropylcellulose) (HPC) 89 % of control | dose: 120.0 mg/kg/injection, schedule: Q01DX005 (ip), vehicle: Klucel (hydroxypropylcellulose) (HPC) 92 % of control | dose: 240.0 mg/kg/injection, schedule: Q01DX005 (ip), vehicle: Klucel (hydroxypropylcellulose) (HPC) 92 % of control

O=C1/C(=C\O)C2CCC3CCC4CC1C342 (centres undefined)
inactive: dose: 25.0 mg/kg/injection, schedule: Q01DX005 (ip), vehicle: Klucel (hydroxypropylcellulose) (HPC) 103 % of control | [13] 97 % of control | [14] 107 % of control

O=C1C2C3C=CC(C2C(=O)N1COP(=O)(O)O)C1C2C(=O)N(COP(=O)(O)O)C(=O)C2C31 (centres undefined)
active: dose: 160.0 mg/kg/injection, schedule: Q01DX009 (ip), vehicle: water 165 % of control | dose: 240.0 mg/kg/injection, schedule: Q01DX009 (ip), vehicle: water 152 % of control
inactive: dose: 20.0 mg/kg/injection, schedule: Q01DX009 (ip), vehicle: water 112 % of control | dose: 40.0 mg/kg/injection, schedule: Q01DX009 (ip), vehicle: water 112 % of control | dose: 80.0 mg/kg/injection, schedule: Q01DX009 (ip), vehicle: water 112 % of control and 90 % of control

c1ccc2sc(CN(Cc3nc4ccccc4s3)Cc3nc4ccccc4s3)nc2c1
inactive: [1] 103 % of control | [15] 101 % of control | [16] 100 % of control

O=C1NC(=O)C2C3C=CC(C12)C1C2C(=O)NC(=O)C2C31 (centres undefined)
inactive: dose: 12.5 mg/kg/injection, schedule: Q01DX009 (ip), vehicle: distilled water + Tween-80 116 % of control | dose: 100.0 mg/kg/injection, schedule: Q01DX001 (ip), vehicle: saline with Tween-80 96 % of control | dose: 200.0 mg/kg/injection, schedule: Q01DX001 (ip), vehicle: saline with Tween-80 109 % of control | dose: 400.0 mg/kg/injection, schedule: Q01DX001 (ip), vehicle: saline with Tween-80 119 % of control
active: dose: 25.0 mg/kg/injection, schedule: Q01DX009 (ip), vehicle: distilled water + Tween-80 153 % of control | dose: 30.0 mg/kg/injection, schedule: Q01DX009 (ip), vehicle: water 163 % of control | dose: 50.0 mg/kg/injection, schedule: Q01DX009 (ip), vehicle: distilled water + Tween-80 193 % of control
